This note sets out measurements from patent US10988459B2 (priority 2015, dated 2021).

As a reminder, the Ki is a dissociation constant, usually derived from enzyme kinetics or from competition with a known ligand.

In this experiment the target is human RIP1 kinase domain (2-375) (Homo sapiens (Human), UniProt Q13546). The experiment can be described thus: biochemical. The note with it: human RIP1 kinase domain (2-375), 50 uM ATP, 2 hours incubation, Transcreener ADP assay; read-out: RIP1 Ki. It is filed as biochemical. In outline: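 Ki^app comes from Morrison tight-binding fits of fractional activity versus compound concentration. Activity was read as ADP production, via tracer displacement lowering fluorescence polarization (633 nm laser). Conditions: 2 h, 50 nM insect-cell-expressed enzyme, 50 uM ATP, 30 mM MgCl2, 1 mM DTT, 0.5% DMSO, pH 7.5 Hepes.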
Sequence of human RIP1 kinase domain (2-375) (Q13546 2-375): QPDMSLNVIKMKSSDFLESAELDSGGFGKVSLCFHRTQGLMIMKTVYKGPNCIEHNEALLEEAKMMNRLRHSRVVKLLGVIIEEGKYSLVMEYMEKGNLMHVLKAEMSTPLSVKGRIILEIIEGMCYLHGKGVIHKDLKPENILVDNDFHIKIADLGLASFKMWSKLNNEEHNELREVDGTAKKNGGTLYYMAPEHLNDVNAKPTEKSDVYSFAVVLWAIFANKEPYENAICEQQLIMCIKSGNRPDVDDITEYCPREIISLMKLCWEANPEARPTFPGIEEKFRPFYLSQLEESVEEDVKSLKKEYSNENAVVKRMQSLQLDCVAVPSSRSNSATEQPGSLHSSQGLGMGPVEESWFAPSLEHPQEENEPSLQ
As for `CN1C(=O)[C@@H](NC(=O)c2ncn(Cc3ccccc3)n2)CCn2nc([C@@H]3CC3(F)F)cc21` [Example 147, 1-benzyl-N-((S)-2-((S)-2,2-difluorocyclopropyl)-4-methyl-5-oxo-5,6,7,8-tetrahydro-4H-pyrazolo[1,5-a][1,3]diazepin-6-yl)-1H-1,2,4-triazole-3-carboxamide], the Ki turned out to be 46.2 nM.

Consider `CN1C(=O)[C@@H](NC(=O)c2ncn(Cc3ccccc3)n2)CCn2nc([C@H]3CC3(F)F)cc21` [Example 148, 1-benzyl-N-((S)-2-((R)-2,2-difluorocyclopropyl)-4-methyl-5-oxo-5,6,7,8-tetrahydro-4H-pyrazolo[1,5-a][1,3]diazepin-6-yl)-1H-1,2,4-triazole-3-carboxamide], for which the Ki was determined as 40 nM.

On to `CN1C(=O)[C@@H](NC(=O)c2nnn3c2C[C@H](C(F)(F)F)CC3)COc2ccccc21` [Example 149, (R)-N-((S)-5-methyl-4-oxo-2,3,4,5-tetrahydrobenzo[b][1,4]oxazepin-3-yl)-5-(trifluoromethyl)-4,5,6,7-tetrahydro-[1,2,3]triazolo[1,5-a]pyridine-3-carboxamide], for which the Ki was 64.3 nM.

As to `CN1C(=O)[C@@H](NC(=O)c2nnn3c2C[C@@H](C(F)(F)F)CC3)COc2ccccc21` [Example 150, (S)-N-((S)-5-methyl-4-oxo-2,3,4,5-tetrahydrobenzo[b][1,4]oxazepin-3-yl)-5-(trifluoromethyl)-4,5,6,7-tetrahydro-[1,2,3]triazolo[1,5-a]pyridine-3-carboxamide], the inhibitory constant (Ki) worked out at 125 nM.

As for `CN1C(=O)[C@@H](NC(=O)c2ncn(Cc3ccccc3)n2)CCn2ccnc21` [Example 151, (S)-1-benzyl-N-(9-methyl-8-oxo-6,7,8,9-tetrahydro-5H-imidazo[1,2-a][1,3]diazepin-7-yl)-1H-1,2,4-triazole-3-carboxamide], the Ki worked out at 26.6 nM.

In the case of `CN1C(=O)[C@@H](NC(=O)c2ncn(Cc3ccccc3)n2)CCCn2nccc21` [Example 155, (S)-1-benzyl-N-(4-methyl-5-oxo-4,5,6,7,8,9-hexahydropyrazolo[1,5-a][1,3]diazocin-6-yl)-1H-1,2,4-triazole-3-carboxamide], the Ki stood at 38.2 nM.

`CN1C(=O)C(NC(=O)c2cc3c(cn2)cnn3[C@H]2CCOC2)COc2ccccc21` (stereo partly drawn) [Example 156, N-(5-methyl-4-oxo-2,3,4,5-tetrahydrobenzo[b][1,4]oxazepin-3-yl)-1-((S)-tetrahydrofuran-3-yl)-1H-pyrazolo[4,3-c]pyridine-6-carboxamide]: the Ki turned out to be 68.3 nM.

`Cc1cc2n(n1)CC[C@H](NC(=O)c1ncn([C@H](C)c3ccccc3)n1)C(=O)N2C` [Example 158, N-((S)-2,4-dimethyl-5-oxo-5,6,7,8-tetrahydro-4H-pyrazolo[1,5-a][1,3]diazepin-6-yl)-1-((R)-1-phenylethyl)-1H-1,2,4-triazole-3-carboxamide]: the inhibition constant Ki was 986 nM.

With `CN1C(=O)[C@@H](NC(=O)c2ncn(CC3CCCC3)n2)CCn2nc(C3CC3)cc21` [Example 160, (S)-1-(cyclopentylmethyl)-N-(2-cyclopropyl-4-methyl-5-oxo-5,6,7,8-tetrahydro-4H-pyrazolo[1,5-a][1,3]diazepin-6-yl)-1H-1,2,4-triazole-3-carboxamide], the Ki is 24.5 nM.

Take `CN1C(=O)[C@@H](NC(=O)c2cc3c(cn2)CO[C@]3(C)CC(F)(F)F)COc2ccccc21` [Example 161, (R)-1-methyl-N-((S)-5-methyl-4-oxo-2,3,4,5-tetrahydrobenzo[b][1,4]oxazepin-3-yl)-1-(2,2,2-trifluoroethyl)-1,3-dihydrofuro[3,4-c]pyridine-6-carboxamide]: the Ki was found to be 8.9 nM.

With `Cc1cc2n(n1)CC[C@H](NC(=O)c1ncn(CC3CCCC3)n1)C(=O)N2C` [Example 162, (S)-1-(cyclopentylmethyl)-N-(2,4-dimethyl-5-oxo-5,6,7,8-tetrahydro-4H-pyrazolo[1,5-a][1,3]diazepin-6-yl)-1H-1,2,4-triazole-3-carboxamide], the Ki is 36.3 nM.
